Structures can show the parent of a compound that is named as a salt.

The nature of the data set: in vitro. Conditions: human, hek293t cells.
In the case of `CC1CSc2ccc(Cl)cc2N(C(=O)CCl)C1` (stereo not drawn) [5-J05, 2-chloro-1-(7-chloro-3-methyl-2,3,4,5-tetrahydro-1,5-benzothiazepin-5-yl)ethan-1-one], the viability at 48 h, 25 µM turned out to be 1.21%.
Under `O=C(CCl)NCC1CCCCC1` [5-J06, 2-chloro-N-(cyclohexylmethyl)acetamide] stands 52.1%.
On to `CC1CCN(C(=O)CCl)c2cc(C(F)(F)F)ccc2S1` (stereo not drawn) [5-J07, 2-chloro-1-[2-methyl-7-(trifluoromethyl)-2,3,4,5-tetrahydro-1,5-benzothiazepin-5-yl]ethan-1-one], for which the viability at 48 h, 25 µM was 0.306%.
The same measure for `CCN(c1ccc(NC(=O)CCl)cc1)C(C)C` [5-J08, 2-chloro-N-{4-[ethyl(propan-2-yl)amino]phenyl}acetamide hydrochloride]: 3.48%.
Under `CCCN(Cc1ccc(C)cc1)C(=O)CCl` [5-J09, 2-chloro-N-[(4-methylphenyl)methyl]-N-propylacetamide] stands 0.952%; under `O=C(CCl)NCCCN1CCCCCC1=O` [5-J10, 2-chloro-N-[3-(2-oxoazepan-1-yl)propyl]acetamide], 119%.
Under `CN(C)S(=O)(=O)c1ccc(NC(=O)CCl)cc1` [5-J11, 2-chloro-N-[4-(dimethylsulfamoyl)phenyl]acetamide] stands 1.08%; under `CCN(CC)S(=O)(=O)c1ccc(Cl)c(NC(=O)CCl)c1` [5-J12, 2-chloro-N-[2-chloro-5-(diethylsulfamoyl)phenyl]acetamide], 0.662%; under `Cc1nn(CC(F)(F)F)c(C)c1C1COCCN1C(=O)CCl` (stereo not drawn) [5-J13, 2-chloro-1-{3-[3,5-dimethyl-1-(2,2,2-trifluoroethyl)-1H-pyrazol-4-yl]morpholin-4-yl}ethan-1-one], 2.86%.
For the compound `O=C(CCl)Nc1cccc(CN2CCSCC2)c1` [5-J14, 2-chloro-N-{3-[(thiomorpholin-4-yl)methyl]phenyl}acetamide hydrochloride], the viability at 48 h, 25 µM stood at 1.12%.
`Cc1ncc(CNC(=O)C(C)Cl)n1C` (stereo not drawn) [5-J15, 2-chloro-N-[(1,2-dimethyl-1H-imidazol-5-yl)methyl]propanamide]: the viability at 48 h, 25 µM was determined as 106%.
The same measure for `CCN(Cc1cccc(C)c1)C(=O)CCl` [5-J16, 2-chloro-N-ethyl-N-[(3-methylphenyl)methyl]acetamide]: 1.39%.
The same measure for `CC(Cl)C(=O)NC(C)(C(N)=O)c1cccc(Cl)c1` (stereo not drawn) [5-J17, 2-(3-chlorophenyl)-2-(2-chloropropanamido)propanamide]: 125%; for `COc1ccc(CNC(=O)C(C)Cl)cc1` (stereo not drawn) [5-J18, 2-chloro-N-[(4-methoxyphenyl)methyl]propanamide]: 98.5%; for `CC(Cl)C(=O)N1CC=C(C(F)(F)F)CC1` (stereo not drawn) [5-J19, 2-chloro-1-[4-(trifluoromethyl)-1,2,3,6-tetrahydropyridin-1-yl]propan-1-one]: 118%.
The same measure for `CC(C)N(Cc1ccccc1)C(=O)CCl` [5-J20, N-benzyl-2-chloro-N-(propan-2-yl)acetamide]: 1.21%; for `CC1CC(NC(=O)C(C)Cl)=NO1` (stereo not drawn) [5-J21, 2-chloro-N-(5-methyl-4,5-dihydro-1,2-oxazol-3-yl)propanamide]: 97.1%.
Consider `O=C(CCl)NC(=O)c1ccc(OC(F)F)cc1` [5-J22, N-(2-chloroacetyl)-4-(difluoromethoxy)benzamide], for which the viability at 48 h, 25 µM was found to be 108%.
Under `Cc1ccc(Cc2cnc(NC(=O)CCl)s2)cc1` [5-K03, 2-chloro-N-{5-[(4-methylphenyl)methyl]-1,3-thiazol-2-yl}acetamide] stands -0.392%; under `CCC(=O)Nc1cccc(NC(=O)CCl)c1C` [5-K04, N-[3-(2-chloroacetamido)-2-methylphenyl]propanamide], 2.12%.
Under `CC(Cl)C(=O)Nc1nc2ccccc2s1` (stereo not drawn) [5-K05, N-(1,3-benzothiazol-2-yl)-2-chloropropanamide] stands 59.9%.

Values taken from PMC11995724, “Antibiotic target discovery by integrated phenotypic and activity-based profiling of electrophilic fragments” (Cell chemical biology, 2025).
